# In PubChem BioAssay AID1259407 (Chemical Carcinogenesis Research Information System (CCRIS), 2018):
# The source made the active and inactive calls. How the calls were made is not given here.
# Tested on: CCRIS mutagenicity, Ames/micronucleus/aberration tests
# Test: CCRIS mutagenicity studies
compound,measurement,setting,value
C[n+]1cccc(C(=O)[O-])c1,mutagenic call,"Test System: AMES SALMONELLA TYPHIMURIUM, Strain/Indicator: TA98, Metabolic Activation: HAMSTER, LIVER, S-9, AROCLOR 1254, Method: STANDARD PLATE",inactive; negative
same,mutagenic call,"Test System: AMES SALMONELLA TYPHIMURIUM, Strain/Indicator: TA98, Metabolic Activation: NONE, Method: STANDARD PLATE",inactive; negative
same,mutagenic call,"Test System: AMES SALMONELLA TYPHIMURIUM, Strain/Indicator: TA98, Metabolic Activation: RAT LIVER S-9, CHLOROPHENE, Method: STANDARD PLATE (COMPOUND HEATED AT 250 DEGREES CELSIUS FOR 20 MIN)",active; positive
same,mutagenic call,"Test System: AMES SALMONELLA TYPHIMURIUM, Strain/Indicator: TA98, Metabolic Activation: RAT, LIVER, S-9, AROCLOR 1254, Method: STANDARD PLATE",inactive; negative
same,mutagenic call,"Test System: AMES SALMONELLA TYPHIMURIUM, Strain/Indicator: TA100, Metabolic Activation: HAMSTER, LIVER, S-9, AROCLOR 1254, Method: STANDARD PLATE",inactive; negative
same,mutagenic call,"Test System: AMES SALMONELLA TYPHIMURIUM, Strain/Indicator: TA100, Metabolic Activation: NONE, Method: STANDARD PLATE",inactive; negative
same,mutagenic call,"Test System: AMES SALMONELLA TYPHIMURIUM, Strain/Indicator: TA100, Metabolic Activation: RAT, LIVER, S-9, AROCLOR 1254, Method: STANDARD PLATE",inactive; negative
same,mutagenic call,"Test System: AMES SALMONELLA TYPHIMURIUM, Strain/Indicator: TA1535, Metabolic Activation: HAMSTER, LIVER, S-9, AROCLOR 1254, Method: STANDARD PLATE",inactive; negative
same,mutagenic call,"Test System: AMES SALMONELLA TYPHIMURIUM, Strain/Indicator: TA1535, Metabolic Activation: NONE, Method: STANDARD PLATE",inactive; negative
same,mutagenic call,"Test System: AMES SALMONELLA TYPHIMURIUM, Strain/Indicator: TA1535, Metabolic Activation: RAT, LIVER, S-9, AROCLOR 1254, Method: STANDARD PLATE",inactive; negative
same,mutagenic call,"Test System: AMES SALMONELLA TYPHIMURIUM, Strain/Indicator: TA1537, Metabolic Activation: HAMSTER, LIVER, S-9, AROCLOR 1254, Method: STANDARD PLATE",inactive; negative
same,mutagenic call,"Test System: AMES SALMONELLA TYPHIMURIUM, Strain/Indicator: TA1537, Metabolic Activation: NONE, Method: STANDARD PLATE",inactive; negative
same,mutagenic call,"Test System: AMES SALMONELLA TYPHIMURIUM, Strain/Indicator: TA1537, Metabolic Activation: RAT, LIVER, S-9, AROCLOR 1254, Method: STANDARD PLATE",inactive; negative
same,mutagenic call,"Test System: AMES SALMONELLA TYPHIMURIUM, Strain/Indicator: TA1538, Metabolic Activation: HAMSTER, LIVER, S-9, AROCLOR 1254, Method: STANDARD PLATE",inactive; negative
same,mutagenic call,"Test System: AMES SALMONELLA TYPHIMURIUM, Strain/Indicator: TA1538, Metabolic Activation: NONE, Method: STANDARD PLATE",inactive; negative
same,mutagenic call,"Test System: AMES SALMONELLA TYPHIMURIUM, Strain/Indicator: TA1538, Metabolic Activation: RAT, LIVER, S-9, AROCLOR 1254, Method: STANDARD PLATE",inactive; negative
same,mutagenic call,"Test System: MOUSE LYMPHOMA, Strain/Indicator: L5178Y (TK+/TK-), Metabolic Activation: NONE, Method: SUSPENSION/PLATE",inactive; negative. reevaluation of results: inconclusive
same,mutagenic call,"Test System: MOUSE LYMPHOMA, Strain/Indicator: L5178Y (TK+/TK-), Metabolic Activation: RAT, LIVER, S-9, AROCLOR 1254, Method: SUSPENSION/PLATE",inactive; negative. reevaluation of results: inconclusive
